Measured values published in patent US20100305113A1, “Substituted Imidazopyridazines as Lipid Kinase Inhibitors” (priority 2007, published 2010).

How the values were obtained:
Type in all cases: biochemical
Settings in all cases: Enzymatic Data
PI3K beta = biological target: T1, PI3K beta (Homo sapiens, UniProt P42338); assay: PI3K beta enzymatic assay (Kinase-Glo luminescence)
T1 construct: for the full-length p110-b subunit are generated and fused by overlapping PCR; p85(iSH2) fusion partner (same polypeptide; see partner chain) (N); Gly linker (N); His tag (C); made in house; host or cells: baculovirus; Tn5 (Trichoplusia ni) or TiniPro insect cells
T1 sequence (P42338 with tags, fused parts or gaps limits assumed): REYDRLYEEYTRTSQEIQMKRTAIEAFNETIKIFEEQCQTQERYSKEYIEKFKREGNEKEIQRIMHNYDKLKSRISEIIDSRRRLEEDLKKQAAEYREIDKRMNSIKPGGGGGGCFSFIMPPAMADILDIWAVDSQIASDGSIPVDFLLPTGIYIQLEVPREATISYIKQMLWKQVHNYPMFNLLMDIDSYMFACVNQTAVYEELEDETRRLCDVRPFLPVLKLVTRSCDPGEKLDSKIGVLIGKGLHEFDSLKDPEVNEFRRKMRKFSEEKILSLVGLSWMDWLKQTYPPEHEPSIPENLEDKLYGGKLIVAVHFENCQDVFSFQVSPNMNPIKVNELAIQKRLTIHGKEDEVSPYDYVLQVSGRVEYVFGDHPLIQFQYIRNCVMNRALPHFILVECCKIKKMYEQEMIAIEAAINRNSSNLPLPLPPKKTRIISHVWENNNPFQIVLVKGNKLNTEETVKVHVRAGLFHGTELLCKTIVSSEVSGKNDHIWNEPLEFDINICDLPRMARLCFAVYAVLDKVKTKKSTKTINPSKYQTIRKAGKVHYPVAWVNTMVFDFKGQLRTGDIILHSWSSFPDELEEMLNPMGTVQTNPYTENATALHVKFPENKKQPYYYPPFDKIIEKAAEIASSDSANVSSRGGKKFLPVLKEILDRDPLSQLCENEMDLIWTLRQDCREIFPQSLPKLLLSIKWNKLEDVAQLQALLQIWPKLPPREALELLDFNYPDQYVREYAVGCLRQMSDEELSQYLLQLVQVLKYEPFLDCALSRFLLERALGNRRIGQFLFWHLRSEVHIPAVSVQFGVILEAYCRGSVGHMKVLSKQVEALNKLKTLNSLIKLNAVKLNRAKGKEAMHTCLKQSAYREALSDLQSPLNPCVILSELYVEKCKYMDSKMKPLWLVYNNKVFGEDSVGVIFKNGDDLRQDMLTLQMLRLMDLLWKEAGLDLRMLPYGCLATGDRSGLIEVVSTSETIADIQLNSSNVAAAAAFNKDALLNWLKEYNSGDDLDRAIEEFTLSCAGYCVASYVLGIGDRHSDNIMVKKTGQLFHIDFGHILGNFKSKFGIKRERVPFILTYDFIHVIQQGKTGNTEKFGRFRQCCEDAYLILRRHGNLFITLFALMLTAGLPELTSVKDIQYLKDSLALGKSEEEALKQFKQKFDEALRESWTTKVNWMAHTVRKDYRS
Method: (§1) In a more preferred assay, the kinase reaction is performed in a final volume of 10 μL per well of a low volume non binding CORNING, 384 well black plate (Cat. No. #3676). The final concentrations of ATP and phosphatidyl inositol (PI) in the assay are 1 μM and 10 μg/mL respectively. The reaction is started by the addition of ATP.
(§2) The components of the assay are added per well as follows:
(§3) 50 nL test compounds in 90% DMSO per well, in columns 1-20, 8 concentrations (⅓ and 1/3.33 serial dilution step) in single. • Low control: 50 nL of 90% DMSO in half the wells of columns 23-24 (0.45% in final). • High control: 50 nL of reference compound (e.g. compound of Example 7 in WO 2006/122806, incorporated by reference herein that regard) in the other half of columns 23-24 (2.5 μM in final). • Standard: 50 nL of reference compound as just mentioned diluted as the test compounds in columns 21-22 • 20 mL ‘buffer’ are prepared per assay: • 200 μL of 1M TRIS HCl pH7.5 (10 mM in final) • 60 μL of 1M MgCl2 (3 mM in final) • 500 μL of 2M NaCl (50 mM in final) • 100 μL of 10% CHAPS (0.05% in final) • 200 μL of 100 mM DTT (1 mM in final) • 18.94 mL of nanopure water • 10 mL ‘PI’ are prepared per assay: • 200 μL of 1 mg/ml L-alpha-Phosphatidylinositol (Liver Bovine, Avanti Polar Lipids Cat. No. 840042C MW=909.12) prepared in 3% OctylGlucoside ([…]) • 9.8 mL of ‘buffer’ • 10 mL ‘ATP’ are prepared per assay: • 6.7 μL of 3 mM stock of ATP giving a final concentration of 1 μM per well • 10 mL of ‘buffer’ • 2.5 mL of each PI3K construct are prepared per assay in ‘PI’ with the following final concentration: • 10 nM PI3K alfa BV-1075 • 25 nM beta BV-949 • 10 nM delta BV-1060 • 150 nM gamma BV-950 • 5 μL of ‘PI/PI3K’ are added per well. • 5 μl ‘ATP’ are added per well to start the reaction. • The plates are then incubated at room temperature for 60 minutes (alfa, beta, delta) or 120 minutes (gamma). • The reaction is terminated by the addition of 10 μL Kinase-Glo (Promega Cat. No. #6714). • The assay plates are read after 10 minutes in Synergy 2 reader (BioTek, Vermont USA) with an integration time of 100 milliseconds and sensitivity set to 191. • Output: The High control is around 60′000 counts and the Low control is 30′000 or lower • This luminescence assay gives a useful Z′ ratio between 0.4 and 0.7 The Z′ value is a universal measurement of the robustness of an assay. A Z′ between 0.5 and 1.0 is considered an excellent assay.
PI3Kβ BV-949 p85(iSH2)-Gly linker-p110b (Full-Length)-C-Term His Tag
(§4) IC50 is determined by a four parameter curve fitting routine that comes aloneg with “excel fit”. A 4 Parameter logistic equation is used to calculate IC50 values (IDBS XLfit) of the percentage inhibition of each compound at 8 concentrations (usually 10, 3.0, 1.0, 0.3, 0.1, 0.030, 0.010 and 0.003 μM). Alternatively, IC50 values are calculated using idbsXLfit model 204, which is a 4 parameter logistic model.

PI3K delta = biological target: T2, PI3K delta (Homo sapiens, UniProt O00329); assay: PI3K delta enzymatic assay (Kinase-Glo luminescence)
T2 construct: for the full-length p110-d subunit are generated and fused by overlapping PCR; p85(iSH2) fusion partner (same polypeptide; see partner chain) (N); Gly linker (N); His tag (C); made in house; host or cells: baculovirus; Tn5 (Trichoplusia ni) or TiniPro insect cells
T2 sequence (O00329 with tags, fused parts or gaps limits assumed): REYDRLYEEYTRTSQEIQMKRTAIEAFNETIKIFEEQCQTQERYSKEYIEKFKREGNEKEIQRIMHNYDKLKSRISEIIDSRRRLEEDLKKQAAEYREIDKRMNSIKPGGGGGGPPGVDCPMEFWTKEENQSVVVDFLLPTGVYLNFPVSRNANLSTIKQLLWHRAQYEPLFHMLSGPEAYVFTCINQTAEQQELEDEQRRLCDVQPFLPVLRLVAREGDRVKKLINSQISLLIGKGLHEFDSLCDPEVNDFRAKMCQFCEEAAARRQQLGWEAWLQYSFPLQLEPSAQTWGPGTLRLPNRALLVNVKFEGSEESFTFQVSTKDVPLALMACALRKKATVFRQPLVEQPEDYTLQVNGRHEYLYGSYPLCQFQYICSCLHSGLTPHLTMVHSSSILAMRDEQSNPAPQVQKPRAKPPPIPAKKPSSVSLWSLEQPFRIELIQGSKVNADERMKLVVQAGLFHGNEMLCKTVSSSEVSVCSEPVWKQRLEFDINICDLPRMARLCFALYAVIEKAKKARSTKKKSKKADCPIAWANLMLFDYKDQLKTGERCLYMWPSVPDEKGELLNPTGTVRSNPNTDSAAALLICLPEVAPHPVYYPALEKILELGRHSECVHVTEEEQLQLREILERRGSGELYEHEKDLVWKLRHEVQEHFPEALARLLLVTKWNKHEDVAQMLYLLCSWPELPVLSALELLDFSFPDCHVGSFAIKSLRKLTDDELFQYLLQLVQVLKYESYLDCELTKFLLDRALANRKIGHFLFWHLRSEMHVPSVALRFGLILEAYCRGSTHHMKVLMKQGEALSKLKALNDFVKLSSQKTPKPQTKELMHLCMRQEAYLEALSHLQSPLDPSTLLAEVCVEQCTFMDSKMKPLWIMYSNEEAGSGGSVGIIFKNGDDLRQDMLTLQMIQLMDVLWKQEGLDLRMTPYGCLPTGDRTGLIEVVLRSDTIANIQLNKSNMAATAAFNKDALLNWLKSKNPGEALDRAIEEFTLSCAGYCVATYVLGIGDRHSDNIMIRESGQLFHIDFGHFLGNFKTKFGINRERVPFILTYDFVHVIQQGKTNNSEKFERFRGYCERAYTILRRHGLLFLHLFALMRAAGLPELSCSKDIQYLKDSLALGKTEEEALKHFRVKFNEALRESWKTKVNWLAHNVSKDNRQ
Method: as §1, §2, §3
PI3Kδ BV-1060 p85(iSH2)-Gly Linker-p110d (Full-Length)-C-term His Tact
as §4

PI3K gamma = biological target: T3, PI3K gamma (Homo sapiens, UniProt P48736); assay: PI3K gamma enzymatic assay (Kinase-Glo luminescence)
T3 construct: His tag (C); made in house; host or cells: construct from Roger Williams lab (MRC LMB); baculovirus (pVL1393); Tn5 (Trichoplusia ni) or TiniPro insect cells
T3 sequence (P48736 144-1102 limits assumed): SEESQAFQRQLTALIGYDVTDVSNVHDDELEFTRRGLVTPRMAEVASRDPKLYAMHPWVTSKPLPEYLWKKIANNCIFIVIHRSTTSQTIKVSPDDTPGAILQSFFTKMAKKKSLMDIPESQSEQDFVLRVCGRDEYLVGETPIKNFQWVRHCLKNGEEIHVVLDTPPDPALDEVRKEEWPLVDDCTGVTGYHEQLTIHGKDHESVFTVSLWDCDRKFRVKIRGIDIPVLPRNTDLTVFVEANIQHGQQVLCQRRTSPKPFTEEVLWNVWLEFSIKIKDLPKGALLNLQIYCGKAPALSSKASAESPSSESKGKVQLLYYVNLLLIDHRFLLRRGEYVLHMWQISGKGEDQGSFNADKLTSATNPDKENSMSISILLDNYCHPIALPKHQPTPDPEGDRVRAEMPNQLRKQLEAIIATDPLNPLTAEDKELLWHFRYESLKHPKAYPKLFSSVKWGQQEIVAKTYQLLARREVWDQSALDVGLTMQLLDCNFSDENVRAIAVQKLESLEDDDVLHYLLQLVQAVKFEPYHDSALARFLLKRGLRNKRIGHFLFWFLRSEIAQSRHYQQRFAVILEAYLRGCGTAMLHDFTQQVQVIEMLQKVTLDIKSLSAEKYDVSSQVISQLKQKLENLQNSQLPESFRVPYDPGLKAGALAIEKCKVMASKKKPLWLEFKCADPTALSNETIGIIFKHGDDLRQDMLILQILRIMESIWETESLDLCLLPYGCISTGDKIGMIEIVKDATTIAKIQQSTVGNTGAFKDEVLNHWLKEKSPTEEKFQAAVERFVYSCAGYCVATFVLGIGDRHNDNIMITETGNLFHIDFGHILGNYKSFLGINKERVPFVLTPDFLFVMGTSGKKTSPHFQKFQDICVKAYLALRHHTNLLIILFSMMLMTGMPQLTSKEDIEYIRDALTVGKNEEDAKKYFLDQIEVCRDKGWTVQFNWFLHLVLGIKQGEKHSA
Method: as §1, §2, §3, §4

PI3K alfa = biological target: T4, PI3K alfa (Homo sapiens, UniProt P42336); assay: PI3K alfa enzymatic assay (Kinase-Glo luminescence)
T4 construct: p85(iSH2) fusion partner (same polypeptide; see partner chain) (N); 12x Gly linker (N); His tag (C); made in house; host or cells: baculovirus; Tn5 (Trichoplusia ni) or TiniPro insect cells
T4 sequence (P42336 with tags, fused parts or gaps limits assumed): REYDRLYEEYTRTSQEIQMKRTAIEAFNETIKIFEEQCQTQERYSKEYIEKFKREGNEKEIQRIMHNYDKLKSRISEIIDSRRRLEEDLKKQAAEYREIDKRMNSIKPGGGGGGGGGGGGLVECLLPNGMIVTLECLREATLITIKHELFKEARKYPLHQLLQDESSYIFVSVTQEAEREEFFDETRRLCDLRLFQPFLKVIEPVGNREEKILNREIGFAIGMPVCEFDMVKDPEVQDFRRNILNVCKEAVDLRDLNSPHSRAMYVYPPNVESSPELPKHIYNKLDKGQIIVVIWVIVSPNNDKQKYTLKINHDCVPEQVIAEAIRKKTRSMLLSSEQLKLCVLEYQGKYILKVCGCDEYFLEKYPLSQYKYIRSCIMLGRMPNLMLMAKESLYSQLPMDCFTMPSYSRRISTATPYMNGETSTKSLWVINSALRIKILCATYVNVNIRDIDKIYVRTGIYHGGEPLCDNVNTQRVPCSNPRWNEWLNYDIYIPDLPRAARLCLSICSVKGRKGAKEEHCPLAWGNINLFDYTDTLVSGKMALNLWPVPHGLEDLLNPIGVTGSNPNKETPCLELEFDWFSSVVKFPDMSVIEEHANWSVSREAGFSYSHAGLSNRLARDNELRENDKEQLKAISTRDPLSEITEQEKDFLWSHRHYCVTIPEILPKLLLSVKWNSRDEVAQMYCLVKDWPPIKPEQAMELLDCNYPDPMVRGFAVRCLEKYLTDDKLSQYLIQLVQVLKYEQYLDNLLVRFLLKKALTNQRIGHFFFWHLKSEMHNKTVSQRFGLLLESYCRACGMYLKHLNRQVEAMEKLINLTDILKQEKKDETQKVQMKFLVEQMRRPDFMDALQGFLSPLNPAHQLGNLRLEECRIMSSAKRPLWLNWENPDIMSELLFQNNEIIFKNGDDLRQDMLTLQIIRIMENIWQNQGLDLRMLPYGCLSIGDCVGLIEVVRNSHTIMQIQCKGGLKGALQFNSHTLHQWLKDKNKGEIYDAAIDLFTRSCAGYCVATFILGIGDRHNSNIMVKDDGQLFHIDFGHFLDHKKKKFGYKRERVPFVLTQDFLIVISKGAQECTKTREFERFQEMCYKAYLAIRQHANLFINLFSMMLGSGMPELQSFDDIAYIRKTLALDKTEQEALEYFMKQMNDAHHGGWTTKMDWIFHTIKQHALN
Method: as §1, §2, §3, §4

Compound	IC50 (PI3K beta)	IC50 (PI3K delta)	IC50 (PI3K gamma)	IC50 (PI3K alfa)
COc1ccc(-c2ccc3nc(C)c(-c4ccn(S(=O)(=O)c5cccc(C#N)c5)n4)n3n2)cc1OC [Example 23, 3-{3-[6-(3,4-Dimethoxy-phenyl)-2-methyl-imidazo[1,2-b]pyridazin-3-yl]-pyrazole-1-sulfonyl}-benzonitrile]	> 9.1 µM	124 nM	511 nM	136 nM
COc1ccc(-c2ccc3nc(C)c(-c4ccc(C#N)nc4)n3n2)cc1OC [Example 4]	1.21 µM	152 nM	345 nM	44 nM
COc1cc(-c2ccc3nc(C)c(-c4cnc(N)c(C(F)(F)F)c4)n3n2)ccc1OCCCN [Example 25, 5-{6-[4-(3-Amino-propoxy)-3-methoxy-phenyl]-2-methyl-imidazo[1,2-b]pyridazin-3-yl}-3-trifluoromethyl-pyridin-2-ylamine]	0.193 µM	24 nM	507 nM	15 nM
COc1ccc(-c2ccc(-c3ccc4nc(C)c(-c5ccc(N6CCOCC6)nc5)n4n3)cc2)cc1 [Example 18, 6-(4′-Methoxy-biphenyl-4-yl)-2-methyl-3-(6-morpholin-4-yl-pyridin-3-yl)-imidazo[1,2-b]pyridazine]	5.16 µM	> 25000 nM	> 25000 nM	> 25000 nM
COc1cc(-c2ccc3nc(C)c(-c4cnc(N)c(C(F)(F)F)c4)n3n2)ccc1OCCNC(=O)c1cccc(C#N)c1 [Example 27]	> 9.1 µM	> 9100 nM	2280 nM	456 nM
COc1cccc(NC(=O)NCCOc2ccc(-c3ccc4nc(C)c(-c5cnc(N)c(C(F)(F)F)c5)n4n3)cc2OC)c1 [Example 59]	> 9.1 µM	> 9100 nM	2640 nM	371 nM
COc1cc(-c2ccc3nc(C)c(-c4cnc(N)c(C(F)(F)F)c4)n3n2)ccc1OCCN [Example 24, 5-{6-[4-(2-Amino-ethoxy)-3-methoxy-phenyl]-2-methyl-imidazo[1,2-b]pyridazin-3-yl}-3-trifluoromethyl-pyridin-2-ylamine]	0.051 µM	52 nM	211 nM	39 nM
COc1ccc(-c2ccc3nc(C)c(-c4ccc(N5CCNCC5)nc4)n3n2)cc1OC [Example 11, 6-(3,4-Dimethoxy-phenyl)-2-methyl-3-(6-piperazin-1-yl-pyridin-3-yl)-imidazo[1,2-b]pyridazine]	0.613 µM	2390 nM	536 nM	110 nM
COc1ccc(-c2ccc3nc(C)c(-c4ccc(F)nc4)n3n2)cc1OC [Example 1, 6-(3,4-Dimethoxy-phenyl)-3-(6-fluoro-pyridin-3-yl)-2-methyl-imidazo[1,2-b]pyridazine]	1.68 µM	1350 nM	241 nM	206 nM
COc1ccc(-c2ccc3nc(C)c(-c4ccc(N)nc4)n3n2)cc1OC [Example 7]	0.976 µM	694 nM	419 nM	96 nM
Cc1nc2ccc(-c3ccc(S(C)(=O)=O)cc3)nn2c1-c1cncc(C#N)c1 [Example 19, 5-[6-(4-Methanesulfonyl-phenyl)-2-methyl-imidazo[1,2-b]pyridazin-3-yl]-nicotinonitrile]	12.3 µM	5500 nM	5180 nM	1290 nM

The remaining lines, values ahead:

IC50 (PI3K beta)	IC50 (PI3K delta)	IC50 (PI3K gamma)	IC50 (PI3K alfa)	Compound
4.01 µM	164 nM	87 nM	19 nM	COc1cc(-c2ccc3nc(C)c(-c4cnc(N)c(C(F)(F)F)c4)n3n2)ccc1OCCCNC(=O)C(C)C [Example 82]
6.26 µM	273 nM	518 nM	83 nM	Cc1nc2ccc(-c3ccc(OCCCN4CCCC4=O)cc3)nn2c1-c1cnc(N)c(C(F)(F)F)c1 [Example 105, 1-(3-{4-[3-(6-Amino-5-trifluoromethyl-pyridin-3-yl)-2-methyl-imidazo[1,2-b]pyridazin-6-yl]-phenoxy}-propyl)-pyrrolidin-2-one]
> 9.1 µM	5370 nM	4740 nM	245 nM	COc1cc(-c2ccc3nc(C)c(-c4cnc(N)c(C(F)(F)F)c4)n3n2)ccc1OCCNC(=O)c1ccc(OC)c(OC)c1OC [Example 95, N-(2-{4-[3-(6-Amino-5-trifluoromethyl-pyridin-3-yl)-2-methyl-imidazo[1,2-b]pyridazin-6-yl]-2-methoxy-phenoxy}-ethyl)-2,3,4-trimethoxy-benzamide]
> 9.1 µM	1040 nM	1060 nM	2200 nM	Cc1nc2ccc(-c3ccc(OCCCN4CCCC4=O)cc3)nn2c1-c1ccc(S(C)(=O)=O)cc1 [Example 106, 1-(3-{4-[3-(4-Methanesulfonyl-phenyl)-2-methyl-imidazo[1,2-b]pyridazin-6-yl]-phenoxy}-propyl)-pyrrolidin-2-one]
> 9.1 µM	966 nM	1330 nM	118 nM	COc1ccc(-c2ccc3nc(C)c(-c4cnc(N)c(C(F)(F)F)c4)n3n2)cc1OCCCNC(=O)c1ccncc1 [Example 97, N-(3-{5-[3-(6-Amino-5-trifluoromethyl-pyridin-3-yl)-2-methyl-imidazo[1,2-b]pyridazin-6-yl]-2-methoxy-phenoxy}-propyl)-isonicotinamide]
> 9.1 µM	2990 nM	> 9100 nM	4690 nM	CCS(=O)(=O)c1ccc(-c2c(C)nc3ccc(-c4ccc(OCCCN5CCCC5=O)cc4)nn23)cc1 [Example 107, 1-(3-{4-[3-(4-Ethanesulfonyl-phenyl)-2-methyl-imidazo[1,2-b]pyridazin-6-yl]-phenoxy}-propyl)-pyrrolidin-2-one]
7.08 µM	2270 nM	6790 nM	985 nM	Cc1nc2ccc(-c3ccc4c(c3)OCO4)nn2c1-c1cnc(N)c(C(F)(F)F)c1 [Example 108, 5-(6-Benzo[1,3]dioxol-5-yl-2-methyl-imidazo[1,2-b]pyridazin-3-yl)-3-trifluoromethyl-pyridin-2-ylamine]
> 9.1 µM	6780 nM	> 9100 nM	367 nM	COc1cc(-c2ccc3nc(C)c(-c4cnc(N)c(C(F)(F)F)c4)n3n2)ccc1OCCNC(=O)c1ccc(N2CCOCC2)cc1 [Example 94, N-(2-{4-[3-(6-Amino-5-trifluoromethyl-pyridin-3-yl)-2-methyl-imidazo[1,2-b]pyridazin-6-yl]-2-methoxy-phenoxy}-ethyl)-4-morpholin-4-yl-benzamide]
> 9.1 µM	4000 nM	8510 nM	2150 nM	COc1ccc(-c2ccc3nc(C)c(-c4ccnc(NCc5ccccc5)n4)n3n2)cc1OC [Example 86, Benzyl-{4-[6-(3,4-dimethoxy-phenyl)-2-methyl-imidazo[1,2-b]pyridazin-3-yl]-pyrimidin-2-yl}-amine]
